From patent publication US20170240522A1, “BENZOTHIOPHENE, BENZYLOXYBENZYLIDENE AND INDOLINE DERIVATIVES USEFUL FOR THE TREATMENT OF TUBERCULOSIS” (priority 2014, published 2017)
Where two headings read alike, the source gives them in different places.

Columns and labels:
ESX-1 = ESX-1 inhibitory activity of inhibitors of mycobacterium virulence (Table VII); format: cell-based, Mycobacterium tuberculosis
EsxA = format: cell-based, Mycobacterium tuberculosis
Ag85 complex proteins = format: cell-based, Mycobacterium tuberculosis
MprB = molecular target: T1, MprB (Mycobacterium tuberculosis, UniProt P9WGL1); experiment: MprB autophosphorylation assay; format: biochemical
T1 construct: MprB lacking its N-terminal transmembrane domain was incubated with [γ-32P]ATP; His6; made in house; host or cells: E. coli BL21 (DE3), vector pQE80L
T1 sequence (P9WGL1 185-504 limits assumed): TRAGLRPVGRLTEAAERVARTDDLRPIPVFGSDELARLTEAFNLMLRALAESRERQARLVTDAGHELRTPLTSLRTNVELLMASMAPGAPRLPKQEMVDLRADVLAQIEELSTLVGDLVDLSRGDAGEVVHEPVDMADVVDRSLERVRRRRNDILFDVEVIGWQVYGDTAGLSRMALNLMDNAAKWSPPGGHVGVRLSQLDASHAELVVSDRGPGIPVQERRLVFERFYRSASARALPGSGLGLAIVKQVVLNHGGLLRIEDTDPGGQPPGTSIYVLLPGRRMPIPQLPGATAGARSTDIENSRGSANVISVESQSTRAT

[1] = system: Mtb-GFP inside activated THP-1 cells; format: cell-based, Mycobacterium tuberculosis; conditions: activated THP-1, 10 μM
[2] = system: several other mycobacteria and non-mycobacterial pathogens; experiment: REMA assay of non-Mtb strains; format: cell-based
MRC-5 lung fibroblasts = experiment: Fibroblast survival assay (FSA); format: cell-based; conditions: Homo sapiens, MRC5; read-out: IC50 of protection of fibroblasts
Mtb-Erdman = experiment: Growth of Mtb in 7H9 broth; format: cell-based, Mycobacterium tuberculosis; conditions: 25 μM
[3] = system: Mtb expressing GFP in infected fibroblasts; format: cell-based, Mycobacterium tuberculosis; conditions: compound concentration 5 μM (FIG. 2D)
Mtb transcriptome = experiment: RNA-seq and qRT-PCR of compound-treated Mtb; format: cell-based, Mycobacterium tuberculosis
Procedure: For the transcriptomic studies, bacteria were grown under the same conditions as for protein secretion assays. Drug exposure time was 8 hours with 5 μM of compound for RNA-seq experiments and confirmatory qRT-PCR. RNA was extracted with Trizol (Invitrogen) and treated with DNase I (Roche) prior to library preparation or generation of the cDNA template. cDNA was synthesized using the RevertAid First Strand cDNA Synthesis Kit (Fermentas) using random hexamer primer. cDNA corresponding to 10 ng of input RNA was used in each RT-PCR reaction supplemented with specific primer pairs (200 nM each) listed in Table S4 and SYBR-Green master mix (Applied Biosystems). Quantitative RT-PCR reactions were performed with the 7900HT Fast Real-Time PCR System (Applied Biosystems) with the following parameters: 50° C. for 2 min, 95° C. for 10 min, followed by 40 cycles of 95° C. for 15 s and 60° C. for 60 s. Melt curve analysis was used to confirm specific amplification for each primer pair. Unpaired Student's T-tests were used for statistical analyses.
For the RNA-seq library preparation 100 ng of total RNA were used in the TruSeq Stranded mRNA LT kit, according to the instructions provided by the manufacturer (Illumina). A small aliquot was analyzed on Qubit and Fragment Analyzer prior to sequencing on Illumina HiSeq using the TruSeq SR Cluster Generation Kit v3 and TruSeq SBS Kit v3. Data were processed with the Illumina Pipeline Software v1.82. RNA-seq data were deposited in the Gene Expression Omnibus (GEO) server at the National Center for Biotechnology Information (NCBI).
• All analyses in this study were carried out using the M. tuberculosis H37Rv annotation from the TubercuList database (http://tuberculist.epfl.ch/) (Lew et al., 2011). There are 4019 protein coding sequences (CDS) currently annotated in the genome, 73 genes encoding for stable RNAs, small RNAs and tRNAs. In order to quantify protein occupancy and transcription across the entire genome, 3080 intergenic regions (regions flanked by two non-overlapping CDS) were included, resulting in a total of 7172 features. • The single-ended sequence reads generated from RNA-seq experiments were aligned to the M. tuberculosis H37Rv genome (NCBI accession NC_000962.2) using Bowtie2 with default parameters (Langmead and Salzberg, 2012). Read counts for all annotated features were obtained with the htseq-count program (http://www.huber.embl.de/users/anders/HTSeq/doc/count.html). Regions where genes overlapped were excluded from counting. Reads spanning more than one feature were counted for each feature. Since the RNA library was strand-specific, the orientation of sequence reads had to correspond to the orientation of annotated features to be counted. Analysis of differential gene expression was carried out using the DESeq package (Anders and Huber, 2010).

[4] = system: Mtb-infected THP-1 macrophages; format: cell-based, human
THP-1 macrophages = experiment: Survival of Mtb-infected activated THP-1 macrophages; format: cell-based, human; conditions: activated THP-1, higher MOI, 10 μM
ATP-levels of Mtb = experiment: Quantification of intracellular ATP levels; format: cell-based, Mycobacterium tuberculosis; conditions: 10 μM, 24 hours
Procedure: (§1) Bacteria were grown for 24 hours in the presence of test compounds. The BacTiter-Glo microbial cell viability reagent (Promega) was used for the quantification of ATP according to the recommendations of the manufacturer. For EtBr uptake assays, bacteria were washed with PBS containing 0.05% Tween 80, OD600 was adjusted to 0.4 and 100 μl were pipetted into black 96 well plates. EtBr was added (4 μM final concentration) and fluorescence was read every 2 min. at 545/600 nm. Unpaired Student's T-tests were used for statistical analyses.

[5] = system: mycobacterial outer membrane permeability; experiment: Ethidium bromide (EtBr) uptake assay; format: cell-based, Mycobacterium tuberculosis; conditions: 10 μM
Procedure: as §1
To investigate whether BBH7 alters mycobacterial outer membrane permeability, which might explain the transcriptomic pattern associated with metal-ion toxicity, the Applicant performed ethidium bromide (EtBr) uptake assays after treatment with the compounds of interest. These assays identify altered outer membrane permeability by an increase of fluorescence after binding of EtBr to bacterial nucleic acids. […] This was not observed with BTP15.

Procedure for GroEL: In brief, 30 ml of bacteria grown to mid-logarithmic phase (OD600 of 0.6 to 0.7) in Sauton's medium supplemented with 0.05% Tween 80 were centrifuged and resuspended in Sauton's medium without Tween. Compounds were added at concentrations as indicated and cells were grown further at 37° C. with shaking for 4 days. Cultures were harvested by centrifugation to obtain culture filtrates and cell pellets. Culture filtrates were concentrated 100-fold in 5-kDa cutoff Vivaspin columns (Sartorius). Cell lysates were prepared by bead beating bacterial pellets in lysis buffer with 100-μm glass beads.
For immunoblot analysis, 5 μg of protein were resolved by SDS-gel electrophoresis and transferred to nitrocellulose membranes. Membranes were blocked with TBS-buffer (3% milk powder) and incubated overnight with the desired primary antibody diluted in TNT-buffer supplemented with 1% BSA fraction V. Membranes were washed with TNT, incubated with the appropriate secondary antibody in TNT-BSA, washed again with TNT, and developed. GroEL2 was used as a lysis control for culture filtrates and as a loading control for cell lysates.

NC(=O)Nc1sc2cc(O)c(Br)cc2c1C(N)=O [D70865]
Activity (ESX-1): 77%

COC(=O)c1cccc(NC(=O)Nc2sc3c(Cl)c(OC(C)=O)c(Cl)cc3c2C(N)=O)c1 [D58298]
Activity (ESX-1): 33%

O=S(=O)([O-])[O-].[Zn+2] [zinc, ZnSO4]
secretion of EsxA (EsxA; 500 μM zinc): sixfold increase
Ag85 secretion (Ag85 complex proteins; media containing elevated levels of ZnSO4): remained unchanged

CSC(=S)N/N=C(\C)c1ccc(OCc2cccc(Br)c2)cc1 [D22670]
Activity (ESX-1): 67%

Nc1ncnc2c1ncn2[C@@H]1O[C@H](COP(=O)(O)OP(=O)(O)NP(=O)(O)O)[C@@H](O)[C@H]1O [AMP-PNP]
MprB auto-phosphorylation (MprB; 1 mM): no effect
phosphohistidine signal of MprB (MprB; 10 mM): only incomplete reduction

CSC(=S)N/N=C(\C)c1ccc(OCc2ccc(Br)cc2)cc1 [D22671]
Activity (ESX-1): 51%

CC(=O)Oc1cc2sc(NC(N)=O)c(C(N)=O)c2cc1Br [D71014]
Activity (ESX-1): 90%

CSC(=S)N/N=C(\C)c1ccc(OCc2cccc(Cl)c2)cc1 [D22646]
Activity (ESX-1): 76%

COc1ccc([N+](=O)[O-])cc1COc1ccc(/C(C)=N/NC(=S)SC)cc1 [D22648]
Activity (ESX-1): 65%

CC(=O)Oc1c(Cl)cc2c(C(N)=O)c(NC(=O)Nc3ccc(C(C)C)cc3)sc2c1Cl [D51275]
Activity (ESX-1): 41%

NNC(=O)c1ccncc1 [Isoniazid, reference compound]
GroEL in the culture filtrate (cell lysis) (GroEL; 5× MIC): cell lysis
EsxA secretion (EsxA; 0.5× MIC): no effect

CSc1ccc(NC(=O)Nc2sc3cc(O)ccc3c2C(N)=O)cc1 [D38979]
Activity (ESX-1): 60%

C/C(=N\NC(=S)Nc1cccc(Cl)c1Cl)c1ccc(OCc2ccccc2)cc1 [D23579]
Activity (ESX-1): 75%

CC(=O)Nc1ccc(/C=N/NC(N)=S)cc1 [thiacetazone, reference compound]
GroEL in the culture filtrate (cell lysis) (GroEL; 5× MIC): cell lysis
EsxA secretion (EsxA; 0.5× MIC): no effect

CC(C)c1ccc(NC(=O)Nc2sc3cc(O)ccc3c2C(N)=O)cc1 [D39317]
Activity (ESX-1): 33%

CSC(=S)N/N=C(\C)c1ccc(OCc2cccc(F)c2)cc1 [D22672]
Activity (ESX-1): 94%

CNC(=O)Nc1sc2c(C(C)C)cc(N)cc2c1C(N)=O [D63134]
Activity (ESX-1): 26%

NC(=O)c1c(NC(=O)Nc2ccc(F)c(Cl)c2)sc2c(Cl)c(O)c(Cl)cc12 [D49399]
Activity (ESX-1): 33%

CNC(=O)Nc1sc2c(Cl)c(O)c(Cl)cc2c1C(N)=O [D60166]
Activity (ESX-1): 55%

NC(=O)c1c(NC(=O)C2CC2)sc2cc(O)c(Br)cc12 [BTP15, 5 -Bromo-2-(cyclopropanecarbonyl-amino)-6-hydroxy-benzo[b]thiophene-3-carboxylic acid amide]
intracellular bacterial load [1]: greatly reduced the intracellular bacterial load
MIC99 [2]: > 100 µM
IC50 (MRC-5 lung fibroblasts): 1200 nM
growth inhibition of Mtb (Mtb-Erdman): no growth inhibition
MprB auto-phosphorylation (MprB): dose-dependent inhibition
GroEL in the culture filtrate (cell lysis) (GroEL; BBH7 and BTP15 treatment): not observed
GFP fluorescence of Mtb in infected fibroblasts [3]: comparable to the untreated control
significantly downregulated genes (number) (Mtb transcriptome; RNA-seq, 5 μM): 18 genes
differentially regulated genes (number) (Mtb transcriptome; RNA-seq, 5 μM, 8 hours): 35 genes
differential regulation (upregulation) of espA (Mtb transcriptome; qRT-PCR): > 2 fold
downregulation of DosR/MprAB associated genes (Mtb transcriptome; qRT-PCR): > 1.5 fold
mprA expression (Mtb transcriptome; qRT-PCR, after 24 and 48 hours of drug treatment): significantly down-regulated
rate of bacteria in acidic compartments (Lysotracker Red co-localization) [4]: significantly higher rate
EsxA secretion (EsxA): dose-dependent secretion inhibition
EsxA secretion (EsxA; 20 μM): blocked EsxA secretion fully
Ag85 secretion (Ag85 complex proteins; 20 μM): reduced Ag85 secretion
Ag85 secretion (Ag85 complex proteins; concentrations ≦10 μM): only slightly affected at best
protection of THP-1 cells from Mtb-induced cell death (THP-1 macrophages): protected THP-1 cells from Mtb-induced cell death
Activity (ESX-1): 92%
mycobacterial ATP levels (ATP-levels of Mtb): no impact
EtBr accumulation and fluorescence [5]: not observed

CC(=O)Oc1cc2sc(NC(=O)C3CC3)c(C(N)=O)c2cc1Br [D70866]
Activity (ESX-1): 80%

CSC(=S)N/N=C(\C)c1ccc(OCc2cccc([N+](=O)[O-])c2)cc1 [D22663]
Activity (ESX-1): 47%

C/C(=N\NC(=S)Nc1ccc(F)c(Cl)c1)c1ccc(OCc2ccccc2)cc1 [D23251]
Activity (ESX-1): 34%

NC(=O)c1c(NC(=O)Nc2cccc(Cl)c2)sc2cc(O)ccc12 [D39322]
Activity (ESX-1): 40%

CC(=O)Oc1c(Cl)cc2c(C(N)=O)c(NC(=O)Nc3cccc(CN(C)C)c3)sc2c1Cl [D58845]
Activity (ESX-1): 87%

CSC(=S)N/N=C(\C)c1ccc(OCc2ccc([N+](=O)[O-])cc2)cc1 [D22647]
Activity (ESX-1): 30%

NC(=O)c1c(NC(=O)Nc2cccc(C(F)(F)F)c2)sc2cc(O)ccc12 [D39321]
Activity (ESX-1): 45%

CC[C@@H](CO)NCCN[C@@H](CC)CO [ethambutol, reference compound]
GroEL in the culture filtrate (cell lysis) (GroEL; 5× MIC): cell lysis
EsxA secretion (EsxA; 0.5× MIC): no effect

CCc1cc(C(N)=S)ccn1 [ethionamide, reference compound]
GroEL in the culture filtrate (cell lysis) (GroEL; 5× MIC): cell lysis
EsxA secretion (EsxA): no effect

[Cu] [copper]
EsxA secretion (EsxA; elevated concentrations of copper): no effect

COc1ccc(CNCC(O)COc2ccc3c(C(N)=O)c(NC(=O)C4CC4)sc3c2)cc1 (stereo not drawn) [D45756]
Activity (ESX-1): 32%
